Experiments:
[1] = tested on: pigs with autologous nucleus pulposus applied to the sacrococcygeal cauda equina; assay: Example 6: nerve conduction velocity 3 days after application of nucleus pulposus mixed with inhibitors; type: in vivo; conditions: pig; inhibitor mixed with NP before application (100 µg antibody each, 2 mg doxycycline)
Description: Fourteen pigs, (body weight 25-30 kg) received an intramuscular injection of 20 mg/kg body weight of KETALAR® (ketamine 50 mg/ml, Parke-Davis, Morris Plains, N.J.) and an intravenous injection of 4 mg/kg body weight of HYPNODIL® (methomidate chloride 50 mg/ml, AB Leo, Helsingborg, Sweden) and 0.1 mg/kg body weight of STRESNIL® (azaperon 2 mg/ml, Janssen Pharmaceutica, Beerse, Belgium). Anesthesia was maintained by additional intravenous injections of 2 mg/kg body weight of HYPNODIL® and 0.05 mg/kg body weight of STRESNIL®. The pigs also received an intravenous injection of 0.1 mg/kg of STESOLID NOVUM® (Diazepam, Dumex, Helsingborg) after surgery.
Nucleus pulposus was harvested from the 5th lumbar disc through a retroperitoneal approach. […]
Three days after the application, the pigs were reanaesthetized by an intramuscular injection of 20 mg/kg body weight of KETALAR® and an intravenous injection of 35 mg/kg body weight of PENTOTHAL® (Thiopental sodium, Abbott lab, Chicago, Ill.). […] Local tissue temperature was continuously monitored and maintained at 37.538.0. degree. […]
The person performing the neurophysiologic analyzes was unaware of the experimental protocol for the individual animal, and after finishing the complete study the data were arranged in the three experimental groups and statistical differences between the groups were assessed by Student's t-test. […]

[2] = tested on: nucleus pulposus-induced nerve root injury; conditions: previous publications; cited from earlier work
[3] = tested on: pigs with autologous nucleus pulposus placed onto the sacrococcygeal cauda equina; assay: Series-3: nerve root conduction velocity 7 days after nucleus pulposus application, systemic TNF inhibitors; type: in vivo, pig; conditions: for Effect on nucleus pulposus induced nerve injury: 7 days, systemic treatment; for NCV (m/s +/− SD): pig, 7 days after NP application, infliximab 100 mg i.v. preoperatively, etanercept 12.5 mg s.c. twice
Description: Series-3: Thirteen pigs had autologous nucleus pulposus placed onto their sacrococcygeal cauda equina similar to series-2. Five pigs (body weight 25 kg) received REMICADE® (infliximab) 100 mg i.v. preoperatively, and 8 pigs received ENBREL® (etanercept) 12.5 mg s.c. preoperatively and additionally 12.5 mg s.c. three days after the operation. Seven days after the nucleus pulposus-application the nerve root conduction velocity was determined over the application zone by local electrical stimulation according to series-2. Thirteen pigs had autologous nucleus pulposus placed onto their sacrococcygeal cauda equina similar to series-2. Five pigs (bodyweight 25 kg) received the human/murine monoclonal antibody, REMICADE® (infliximab, […]) 100 mg i.v. preoperatively, and 8 pigs received ENBREL® (etanercept, Centocor B.V., Leiden, the Netherlands) 12.5 mg s.c. preoperatively and additionally 12.5 mg s.c. three days after the operation. Seven days after the nucleus pulposus-application the nerve root conduction velocity was determined over the application zone by local electrical stimulation according to series-2. […] No non-treated animals were included in the series-3 due to the pre-existing knowledge of nerve conduction velocity after seven days of either nucleus pulposus or fat (control) application. The statistical difference between the groups, infliximab, and etanercept, nucleus pulposus without treatment (positive control from previous data) and application of retroperitoneal fat (negative control from previous data) was assessed by using ANOVA and Fisher's PLSD at 5%.

Compound	Block of nucleus pulposus-related effects [2]	Effect on nucleus pulposus induced nerve injury [3]	NCV (m/s +/− SD) [3]	also measured
C[C@H]1c2cccc(O)c2C(=O)C2=C(O)[C@]3(O)C(=O)C(C(N)=O)=C(O)[C@@H](N(C)C)[C@@H]3[C@@H](O)[C@@H]21 [Doxycycline, doxycycline]				Nerve conduction velocity (m/s) 3 days after application [1]: 53 +/− 22 m/s
COc1ccc2c(c1)c(CC(=O)O)c(C)n2C(=O)c1ccc(Cl)cc1 [indomethacin]	slightly less efficiently			
CCN(CC)CC(=O)Nc1c(C)cccc1C [lidocaine]	slightly less efficiently			
cyclosporin A	blocked efficiently			
etanercept [ENBREL ®]		blocked the nucleus pulposus induced nerve injury efficiently	78 +/− 14 m/s	
infliximab [REMICADE ®]		blocked the nucleus pulposus induced nerve injury efficiently	79 +/− 15 m/s	

Source: patent US8057792B2, “Use of an antibody that blocks TNF-alpha activity for treating a nerve disorder mediated by nucleus pulposus” (Sciaticon AB, priority 1998, dated 2011)
